Results on 22 molecules are retold here after ChEMBL document CHEMBL1149940, “Conformationally constrained analogues of diacylglycerol. 6. Changes in PK-C binding affinity for 3-O-acyl-2-deoxy-L-ribonolactones bearing different acyl chains” (Bioorg Med Chem Lett, 1994).

For data set [1], the species on record is Mus musculus. The data set can be described thus: Inhibition of [3H]phorbol-12,13-dibutyrate binding to mouse brain protein kinase C at 100 ug/mL.
Data set [2] in a line: Inhibition of [3H]phorbol-12,13-dibutyrate binding to mouse brain protein kinase C.
Data set [3] in a line: Logarithm of water solubility was reported. The format is ADME. The following applies: buffer.
The nature of data set [4]: Inhibition of [3H]phorbol-12,13-dibutyrate binding to mouse brain protein kinase C (No inhibition at >1700 uM).
A short description of data set [5]: Inhibition of [3H]phorbol-12,13-dibutyrate binding to mouse brain protein kinase C (calculated value from percent inhibition at 100 ug/mL).

Regarding `O=C1C[C@H](OC(=O)c2ccc3ccccc3c2)[C@@H](CO)O1`, the inhibition in data set [1] worked out at 28%.

With `CCCCCCCCCC(=O)O[C@@H]1CC(=O)O[C@H]1CO`, in data set [2], the affinity, expressed as Ki, was 4.06 µM. The “log S” value in data set [3] is listed as -0.54 M/m3.

In the case of `CCCCCCCCCCCCCCCCCC(=O)O[C@@H]1CC(=O)O[C@H]1CO`, in data set [2], the affinity corresponds to a Ki of 8.69 µM. Moreover, the “log S” value in data set [3] is -4.7 M/m3.

`CCCCCCCc1ccc(C(=O)O[C@@H]2CC(=O)O[C@H]2CO)cc1` had a Ki in data set [2] of 3.2 µM. Besides, the “log S” value in data set [3] was -2.05 M/m3.

Turning to `O=C1C[C@H](OC(=O)c2ccccc2)[C@@H](CO)O1`, in data set [1], the inhibition worked out at 9.5%.

For the molecule `O=C(Cc1ccccc1)O[C@H]1CC(=O)O[C@@H]1CO`, the inhibition in data set [1] was 29%.

`COc1ccc(C(=O)O[C@H]2CC(=O)O[C@@H]2CO)cc1` gave an inhibition in data set [1] of 2%.

As to `O=C1C[C@@H](OC(=O)c2cccc3ccccc23)[C@H](CO)O1`, the Ki in data set [2] turned out to be 23.5 µM. Besides, the “log S” value in data set [3] is reported as -0.18 M/m3.

`CCCCCCCCCCC(CCCC)CCCCCCC(=O)O[C@@H]1CC(=O)O[C@H]1CO` (some centres undefined): in data set [2], the affinity, expressed as Ki, was 2.45 µM. Also, the “log S” value in data set [3] is -6.46 M/m3.

In turn, `CCCCCC(=O)O[C@@H]1CC(=O)O[C@H]1CO` returned a Ki in data set [2] of 188 µM. For the same molecule, the “log S” value in data set [3] turned out to be 1.54 M/m3.

In the case of `CCCCCCCCCCC(C)CCCCCCC(=O)O[C@@H]1CC(=O)O[C@H]1CO` (some centres undefined), affinity in data set [2] was put at a Ki of 2.39 µM. In data set [3], the “log S” value was -4.9 M/m3.

Regarding `CCCCCCCCCCC(CCCCCCC(=O)O[C@@H]1CC(=O)O[C@H]1CO)c1ccccc1` (some centres undefined), in data set [2], the affinity corresponds to a Ki of 1.21 µM. Also, the “log S” value in data set [3] is reported as -6.91 M/m3.

As to `CCCCCCCCCCCCCC(=O)O[C@@H]1CC(=O)O[C@H]1CO`, in data set [2], the Ki was 2.53 µM. In addition, the “log S” value in data set [3] is -2.62 M/m3.

In the case of `CCCCCCCCCCCCCC(=O)O[C@H]1CC(=O)O[C@@H]1CO`, the Ki in data set [2] amounted to 5.3 µM.

Regarding `CC(=O)O[C@@H]1CC(=O)O[C@H]1CO`, the inhibitory constant (Ki) entry in data set [4] is reported as “Not Active”. Moreover, in data set [3], the “log S” value is on record as 3.62 M/m3.

`CCc1ccc(C(=O)O[C@H]2CC(=O)O[C@@H]2CO)cc1` gave an inhibition in data set [1] of 21%.

In data set [1], `O=C1C[C@H](OC(=O)c2ccc(-c3ccccc3)cc2)[C@@H](CO)O1` registered an inhibition of 6.5%.

The molecule `O=C1C[C@H](OC(=O)c2cccc3ccccc23)[C@@H](CO)O1` returned an inhibition in data set [1] of 30%.

Regarding `O=C1C[C@@H](OC(=O)Cc2ccccc2)[C@H](CO)O1`, the Ki in data set [5] was 222 µM. The “log S” value in data set [3] is 1.09 M/m3.

Take `O=C(/C=C/c1ccccc1)O[C@H]1CC(=O)O[C@@H]1CO`: the inhibition in data set [1] is 18.5%.

Regarding `CCCCCCCC/C=C/CCCCCCCC(=O)O[C@@H]1CC(=O)O[C@H]1CO`, the Ki in data set [2] came out at 1.33 µM. Further, the “log S” value in data set [3] was -3.9 M/m3.

For `CCCCCCCc1ccc(C(=O)O[C@H]2CC(=O)O[C@@H]2CO)cc1`, the inhibition constant Ki in data set [2] was determined as 8.9 µM.
